Measurements reported in US10100052B2, “Compounds for the treatment of hepatitis B virus infection” (Gilead Sciences, Inc., priority 2016, dated 2018).

Legend:
[1] = In vitro metabolic stability, hepatic microsomes (rat); assay type: in vitro ADME; conditions: pooled hepatic microsomes, pH 7.4; rat hepatic microsomes 1.0 mg/mL, 1 μM compound, NADPH and UDPGA cofactors; read-out: Microsome Stability T1/2 Rat
Description: Pooled hepatic microsomes were diluted in […] potassium phosphate buffer to 1.0 mg/mL final protein concentration. Alamethicin was added to the microsomal fraction to permeabilize the membrane to allow access of the UDP-glucronic acid (UDPGA) co-substrate to the active site of the UDP glucuronosyl transferase (UGT) enzymes. The final concentration was 25 μg/mL (ratio 25 μg alamethicin/mg microsomal protein) and the microsomes were then placed on ice for 15 min prior to the start of the reaction. Test compound was added to a final concentration of 1 μM. Positive control compounds known to be metabolized by oxidative and UGT enzymes were used. The metabolic reaction was warmed to 37° C. and initiated by the addition of a cofactor mix that consisted of 1.55 mM NADP, 3.3 mM glucose-6-phosphate, 0.4 U/mL glucose-6-phosphate dehydrogenase, 5 mM UDP-glucuronic acid and 3.3 mM MgCl2 all dissolved in 0.1 M potassium phosphate buffer, pH 7.4. At 2, 12, 25, 45, and 65 min, 25 μL aliquots of the reaction mixture were transferred to plates containing 225 μl of quenching solution (acetonitrile containing 300 nM labetalol IS and 0.1% formic acid). After quenching, the plates are centrifuged at 3000×g for 30 minutes to precipitate proteins, and 10 μL aliquots of the supernatant are analyzed by HPLC coupled to a high-resolution mass spectrometer.
Quantification of test compounds and positive controls were performed using analyte/internal standard peak area ratios (PAR) measured on a Q-Exactive mass spectrometer (Thermo Scientific, San Jose, Calif.) coupled to an Aria Transcend LX-4 multiplex UHPLC system (Thermo Scientific, San Jose, Calif.). A Hypersil Gold C18 UHPLC column (1.9 […], 50×2.1 mm) was used with mobile phases A and B consisting of 0.1% formic acid in water and 0.1% formic acid in acetonitrile, respectively. […] Half-lives of compounds in the incubations were calculated from extracted data using GMSU/QuickCalc (Gubbs, Inc.) and data are summarized in the following Table 3.

[2] = Pharmacokinetic analysis following oral administration to rats; assay type: in vivo, male Sprague-Dawley rats; conditions: rat, 5 mg/kg; for Cmax / AUC(0-t): male, Sprague-Dawley, plasma; for AUC(0-t): 0 to 24 hr, read-out: AUC0-24; for F: oral bioavailability
Description: (§1) Pharmacokinetic analysis was performed on various test compounds following intravenous or oral administration to male Sprague-Dawley rats.
(§2) For pharmacokinetic analysis of intravenously administered compounds, the test compounds were formulated in 5% NMP, 30% PG, 45% PEG 300 and 20% water at 0.5 mg/mL for IV infusion. For pharmacokinetic analysis following oral administration, compounds were formulated in the same vehicle and concentration.
(§3) Each dosing group consisted of 3 male, naïve Sprague-Dawley rats. At dosing, animals weighed approximately 0.28 kg. The animals were fasted overnight prior to dose administration and up to 4 hr after dosing. For studies of intravenous administration, the test article was administered to the animals by intravenous infusion over 30 min. The rate of infusion was adjusted according to the body weight of each animal to deliver a dose of 1 mg/kg. For studies of oral administration, the test article was administered according to the body weight of each animal to deliver a dose of 5 mg/kg.
For pharmacokinetic analysis of orally administered compounds, serial venous blood samples (approximately 0.3 mL each) were taken from each animal at time points of 0, 0.25, 0.50, 1.0, 2.0, 4.0, 6.0, 8.0, 12.0 and 24.0 hours after dosing. Blood samples were collected, prepared and analyzed in a similar way to the intravenous studies described above. Non-compartmental pharmacokinetic analysis was performed on the plasma concentration-time data. The resulting data are shown in the last three columns of Table 4. In Table 4, F (%) refers to oral bioavailability. Cmax refers to the peak plasma concentration of the compound after administration. AUC0-24 refers to area under the curve for the 0 to 24 hr plasma collection interval and is a measure of total plasma exposure of the indicated compound.

[3] = Pharmacokinetic analysis following intravenous administration to rats; assay type: in vivo; conditions: male, Sprague-Dawley, rat, intravenous infusion over 30 min, 1 mg/kg; for clearance / Vd: plasma; for Vd: read-out: Vss; for half-life: terminal plasma half-life
Description: as §1, §2, §3
For pharmacokinetic analysis of intravenously administered compounds, serial venous blood samples (approximately 0.3 mL each) were taken from each animal at 0, 0.250, 0.483, 0.583, 0.750, 1.50, 3.00, 6.00, 8.00, 12.0, and 24.0 hours after dosing. The blood samples were collected into Vacutainer™ tubes containing EDTA-K2 as the anti-coagulant and were immediately placed on wet ice pending centrifugation for plasma. An LC/MS/MS method was used to measure the concentration of the test compound in plasma. An aliquot of 100 μL of each plasma sample was added to a clean 96 well plate, and 400 μL of cold acetonitrile/internal standard solution (ACN)/(ISTD) was added. After protein precipitation, an aliquot of 100 μL of the supernatant was transferred to a clean 96-well plate and diluted with 175 μL of water. An aliquot of 10 μL of the above solution was injected into an ABSciex API-4000 LC/MS/MS system utilizing a HyPurity C18 HPLC column (30×2.1 mm, 3 m; Thermo-Hypersil Part #22103-032130). An Agilent 1200 series binary pump (P/N G1312A Bin Pump) was used for elution and separation, and an HTS Pal autosampler (LEAP Technologies, Carrboro, N.C.) was used for sample injection. A TSQ Quantum Ultra triple quadrupole mass spectrometer was utilized in selective reaction monitoring mode (Applied Biosystems, Foster City, Calif.). Liquid chromatography was performed using two mobile phases: mobile phase A contained 0.1% formic acid and 1% isopropanol in water; and mobile phase B contained 0.1% formic acid and 1% isopropanol in acetonitrile. Non-compartmental pharmacokinetic analysis was performed on the plasma concentration-time data.
The resulting data are shown in the first three columns of Table 4. In Table 4, CL refers to clearance, which characterizes the rate at which drug is removed from plasma. The lower the clearance of a drug is, the longer the elimination half-life is in the body. Vss refers to the steady state volume of distribution and indicates how well a drug is distributed into the tissues. The larger the Vss is, the longer the elimination half-life is in the body. T1/2 refers to the terminal plasma half-life of the compound.

SMILES | half-life at 1 μM [1] | Cmax [2] | AUC(0-t) [2] | F [2] | clearance [3] | Vd [3] | half-life [3]
COCCCOc1cc2c(cc1Cl)-c1cc(=O)c(C(=O)O)cn1[C@H](C(C)(C)C)C2 [Comparative Example 2] | 3.83 h | 2.43 µM | 15.2 µM·h | 40.5% | 5.05 mL/min/kg | 0.661 L/kg | 1.99 h
COCCCOc1cc2c(cc1Cl)-c1cc(=O)c(C(=O)O)cn1N(C(C)(C)C)C2 [Example 2, 6-(tert-Butyl)-10-chloro-9-(3-methoxypropoxy)-2-oxo-6,7-dihydro-2H-pyrido[2,1-a]-phthalazine-3-carboxylic acid] | > 5.83 h | 6.76 µM | 68.6 µM·h | 109% | 2.97 mL/min/kg | 0.623 L/kg | 3.34 h
COCCCOc1cc2c(cc1Cl)-c1cc(=O)c(C(=O)O)cn1[C@H](C1(C)CC1)C2 [Comparative Example 1] | 3.82 h | 4.03 µM | 22.1 µM·h | 53.8% | 5.67 mL/min/kg | 0.57 L/kg | 1.62 h
